The test system of one assay is NIH/3T3 cells. Briefly: Cell death protective effect in fibroblasts against Erastin, glutamate and RSL3 (LDH). The class given is cell-based, mouse. The note with it: 24 h. The protocol:
(§1) In order to identify the protective effect on fibroblasts, NIH/3T3 cells were divided into 96-well plates by 8×10^3 and cultured for 18 to 24 hours. The compounds of Examples were diluted to final concentrations of 0.1 and 1 μM, treated in each well, and incubated for 15 to 20 minutes. Erastin, glutamate, and RSL3 were treated to have final concentrations of 3 μM, 30 mM, and 3 μM, respectively, and cultured for 24 hours. In order to identify the protective effect of each compound, the degree of LDH extracellular secretion was measured using cytotoxicity LDH assay kit [Dojindo; CK12]. Briefly, at the time when the treatment of the cells with Erastin, glutamate, and RSL3 for 24 hours is completed, the supernatants containing the cells are taken by 70 μL and transferred to a new 96-well plate. The assay buffer included in the kit is added in an amount of 70 μL/well (the same amount as the sample) thereto, and then the plate is wrapped with a foil and the reaction is performed at room temperature for 15 minutes.

Another assay concerns PC-12 cells. Briefly: Cell death protective effect in adrenal cells against Erastin, glutamate and RSL3 (LDH). The class given is cell-based, rat. As to conditions: 24 h. Here is the method: as §1, with “on adrenal cells, PC-12” for “on fibroblasts, NIH/3T3”, “by 1×10^4” for “by 8×10^3”, “hours. […]” for “hours. The compounds of Examples were diluted to final concentrations of 0.1 and 1 μM, treated in each well, and incubated for 15 to 20 minutes.”, “of 1” for “of 3”, “μM, 10” for “μM, 30”, “and 0.3” for “and 3”

Another assay concerns H9C2 cells. The assay is described as follows: Cell death protective effect in cardiac myocytes against Erastin, glutamate and RSL3 (LDH). As to conditions: 24 h. The format is cell-based, white mouse. Here is the method: as §1, with “on cardiac cells, H9C2” for “on fibroblasts, NIH/3T3”, “by 1×10^4” for “by 8×10^3”, “and 1.0” for “and 1”, “of 1” for “of 3”, “μM, 25” for “μM, 30”, “and 0.5” for “and 3”

A further assay deals with ARPE-19 cells. The assay is described as follows: Cell death protective effect in retinal epithelial cells against Erastin and RSL3 (LDH). The format is cell-based, human. As to conditions: 24 h. Here is the method: In order to identify the protective effect on retinal epithelial cells, ARPE-19 cells were divided into 96-well plates by 1×10^4 and cultured for 18 to 24 hours. The compounds of Examples were diluted to final concentrations of 0.03 and 0.3 μM, treated in each well, and incubated for 20 minutes. Erastin, and RSL3 were treated to have final concentrations of 10 μM, and 0.3 μM, respectively, and cultured for 24 hours. In order to identify the protective effect of each compound, the degree of LDH extracellular secretion was measured using cytotoxicity LDH assay kit [Dojindo; CK12]. Briefly, at the time when the treatment of the cells with Erastin, and RSL3 for 24 hours is completed, the supernatants containing the cells are taken by 70 μL and transferred to a new 96-well plate. The assay buffer included in the kit is added in an amount of 70 μL/well (the same amount as the sample) thereto, and then the plate is wrapped with a foil and the reaction is performed at room temperature for 15 minutes.

A further assay relates to MLE-12 cells. The assay is described as follows: Cell death protective effect in lung epithelial cells against RSL3 (LDH). As to conditions: MLE-12, RSL3, 1 μM, 24 h. The class given is cell-based, rat. The protocol:
In order to identify the protective effect on lung epithelial cells, MLE-12 cells were divided into 96-well plates by 5×10^3 and cultured for 18 to 24 hours. The compounds of Examples were diluted to final concentrations of 0.03 and 0. μM, treated in each well, and incubated for 20 minutes. RSL3 was treated to have final concentrations of 1. μM, respectively, and cultured for 24 hours. In order to identify the protective effect of each compound, the degree of LDH extracellular secretion was measured using cytotoxicity LDH assay kit [Dojindo; CK12]. Briefly, at the time when the treatment of the cells with RSL3 for 24 hours is completed, the supernatants containing the cells are taken by 70 μL and transferred to a new 96-well plate. The assay buffer included in the kit is added in an amount of 70 μL/well (the same amount as the sample) thereto, and then the plate is wrapped with a foil and the reaction is performed at room temperature for 15 minutes.

Setting [1] is: NIH/3T3, Erastin, 3 μM, compound 0.1 μM.
Where [2] appears, read: NIH/3T3, Erastin, 3 μM, compound 1.0 μM.
[3] abbreviates: NIH/3T3, Glutamate, 30 mM, compound 0.1 μM.
Setting [4] is: NIH/3T3, Glutamate, 30 mM, compound 1.0 μM.
Setting [5] is: NIH/3T3, RSL3, 3 μM, compound 0.1 μM.
Setting [6] is: NIH/3T3, RSL3, 3 μM, compound 1.0 μM.
Where [7] appears, read: PC-12, Erastin, 1 μM, compound 0.1 μM.
The mark [8] stands for this setting: PC-12, Erastin, 1 μM, compound 1.0 μM.
[9] abbreviates: PC-12, Glutamate, 10 mM, compound 0.1 μM.
Setting [10] is: PC-12, Glutamate, 10 mM, compound 1.0 μM.
The mark [11] stands for this setting: PC-12, RSL3, 0.3 μM, compound 0.1 μM.
Setting [12] is: PC-12, RSL3, 0.3 μM, compound 1.0 μM.
The mark [13] stands for this setting: H9C2, Erastin, 1 μM, compound 0.1 μM.
Where [14] appears, read: H9C2, Erastin, 1 μM, compound 1.0 μM.
Where [15] appears, read: H9C2, Glutamate, 25 mM, compound 0.1 μM.
Setting [16] is: H9C2, Glutamate, 25 mM, compound 1.0 μM.
The mark [17] stands for this setting: H9C2, RSL3, 0.5 μM, compound 0.1 μM.
The mark [18] stands for this setting: H9C2, RSL3, 0.5 μM, compound 1.0 μM.
Where [19] appears, read: ARPE-19, Erastin, 10 μM, compound 0.03 μM.
The mark [20] stands for this setting: ARPE-19, Erastin, 10 μM, compound 0.3 μM.
The mark [21] stands for this setting: ARPE-19, RSL3, 0.3 μM, compound 0.03 μM (first RSL3 column).
Setting [22] is: ARPE-19, RSL3, 0.3 μM, compound 0.03 μM (second RSL3 column).

As to `COCCc1cc(NC2CCOCC2)c2[nH]c(-c3ccccc3)cc2c1` [Example 41, 5-(2-methoxyethyl)-2-phenyl-N-(tetrahydro-2H-pyran-4-yl)-1H-indol-7-amine], the “inhibition (%)” value is 0% with NIH/3T3 cells (setting [1]); 0% with NIH/3T3 cells (setting [2]); 99% with NIH/3T3 cells (setting [3]); 98% with NIH/3T3 cells (setting [4]); 100% with NIH/3T3 cells (setting [5]); 100% in the assay on NIH/3T3 cells (setting [6]). The “inhibition (%)” value with PC-12 cells (setting [7]) was 100%; in the assay with PC-12 cells (setting [8]), 100%; with PC-12 cells (setting [9]), 76%; in the assay on PC-12 cells (setting [10]), 100%; with PC-12 cells (setting [11]), 100%; in the assay on PC-12 cells (setting [12]) it was 100%. Besides, the “inhibition (%)” value in the assay with H9C2 cells (setting [13]) turned out to be 100%; in the assay with H9C2 cells (setting [14]) it was 100%; in the assay on H9C2 cells (setting [15]), 99%; with H9C2 cells (setting [16]), 98%; with H9C2 cells (setting [17]) it was 100%; in the assay on H9C2 cells (setting [18]), 100%. In addition, the “inhibition (%)” value in the assay with ARPE-19 cells (setting [19]) is on record as 100%; in the assay with ARPE-19 cells (setting [20]), 100%; with ARPE-19 cells (setting [21]), 100%; in the assay with ARPE-19 cells (setting [22]), 100%; in the assay on MLE-12 cells (compound 0.03 μM), 95%; with MLE-12 cells (compound 0.3 μM), 97%.

For the compound `CCOCc1cc(NC2CCOCC2)c2[nH]c(-c3ccccc3)c(-c3ncc[nH]3)c2c1` [Example 46, 5-(ethoxymethyl)-3-(1H-imidazol-2-yl)-2-phenyl-N-(tetrahydro-2H-pyran-4-yl)-1H-indole-7-amine], the “inhibition (%)” value was 102% in the assay on NIH/3T3 cells (setting [1]); 99% with NIH/3T3 cells (setting [2]); 0% with NIH/3T3 cells (setting [3]); 96% in the assay with NIH/3T3 cells (setting [4]); 0% with NIH/3T3 cells (setting [5]); 100% with NIH/3T3 cells (setting [6]). The “inhibition (%)” value is recorded as 0% in the assay with PC-12 cells (setting [7]); 38% in the assay with PC-12 cells (setting [8]); 4% with PC-12 cells (setting [9]); 6% with PC-12 cells (setting [10]); 0% with PC-12 cells (setting [11]); 100% with PC-12 cells (setting [12]). The “inhibition (%)” value with H9C2 cells (setting [13]) is recorded as 4%; in the assay with H9C2 cells (setting [14]), 100%; with H9C2 cells (setting [15]), 4%; with H9C2 cells (setting [16]) it was 94%; in the assay with H9C2 cells (setting [17]) it was 15%; in the assay on H9C2 cells (setting [18]), 9%. In addition, the “inhibition (%)” value in the assay on ARPE-19 cells (setting [19]) is reported as 3%; in the assay with ARPE-19 cells (setting [20]) it was 64%; in the assay on ARPE-19 cells (setting [21]) it was 5%; with ARPE-19 cells (setting [22]), 43%; in the assay on MLE-12 cells (compound 0.03 μM), 0%; in the assay with MLE-12 cells (compound 0.3 μM), 7%.

Consider `CCOC(=O)c1ccc(NC2CCCCC2)c(N)c1` [Ferrostatin-1, reference compound], for which the “inhibition (%)” value in the assay on NIH/3T3 cells (setting [1]) was determined as 0%; with NIH/3T3 cells (setting [2]) it was 96%; in the assay with NIH/3T3 cells (setting [3]), 98%; in the assay with NIH/3T3 cells (setting [4]) it was 98%; in the assay on NIH/3T3 cells (setting [5]) it was 100%; in the assay with NIH/3T3 cells (setting [6]) it was 100%. The “inhibition (%)” value was 100% in the assay on PC-12 cells (setting [7]); 100% in the assay with PC-12 cells (setting [8]); 29% in the assay on PC-12 cells (setting [9]); 99% with PC-12 cells (setting [10]); 100% in the assay on PC-12 cells (setting [11]); 100% in the assay with PC-12 cells (setting [12]). For the same compound, the “inhibition (%)” value in the assay on H9C2 cells (setting [13]) worked out at 100%; in the assay on H9C2 cells (setting [14]), 100%; in the assay on H9C2 cells (setting [15]) it was 95%; with H9C2 cells (setting [16]) it was 97%; in the assay with H9C2 cells (setting [17]) it was 83%; in the assay on H9C2 cells (setting [18]), 100%. Further, the “inhibition (%)” value in the assay on ARPE-19 cells (setting [19]) was 96%; in the assay with ARPE-19 cells (setting [20]) it was 100%; with ARPE-19 cells (setting [21]), 68%; in the assay with ARPE-19 cells (setting [22]) it was 100%; in the assay with MLE-12 cells (compound 0.03 μM), 25%; in the assay with MLE-12 cells (compound 0.3 μM) it was 98%.

For `CCOCc1cc(NC2CCOCC2)c2c(c1)c(COC)c(-c1ccccc1)n2C` [Example 29, 5-(ethoxymethyl)-3-(methoxymethyl)-1-methyl-2-phenyl-N-(tetrahydro-2H-pyran-4-yl)-1H-indol-7-amine], the “inhibition (%)” value in the assay on NIH/3T3 cells (setting [1]) was 0%; in the assay with NIH/3T3 cells (setting [2]) it was 99%; with NIH/3T3 cells (setting [3]), 98%; in the assay on NIH/3T3 cells (setting [4]) it was 97%; in the assay on NIH/3T3 cells (setting [5]), 100%; with NIH/3T3 cells (setting [6]), 100%. Moreover, the “inhibition (%)” value is given as 0% in the assay with PC-12 cells (setting [7]); 100% in the assay on PC-12 cells (setting [8]); 22% in the assay on PC-12 cells (setting [9]); 71% in the assay on PC-12 cells (setting [10]); 26% in the assay on PC-12 cells (setting [11]); 100% in the assay on PC-12 cells (setting [12]). Besides, the “inhibition (%)” value is given as 1% in the assay on H9C2 cells (setting [13]); 100% in the assay with H9C2 cells (setting [14]); 6% with H9C2 cells (setting [15]); 95% with H9C2 cells (setting [16]); 10% in the assay on H9C2 cells (setting [17]); 100% with H9C2 cells (setting [18]). The “inhibition (%)” value in the assay with ARPE-19 cells (setting [19]) turned out to be 22%; with ARPE-19 cells (setting [20]), 100%; with ARPE-19 cells (setting [21]) it was 18%; in the assay on ARPE-19 cells (setting [22]), 100%; in the assay with MLE-12 cells (compound 0.03 μM), 0%; with MLE-12 cells (compound 0.3 μM), 95%.

For the origin of these results see patent publication US20250289785A1, “INDOLE DERIVATIVE, METHOD FOR PREPARING SAME, AND USE THEREOF” (MITOIMMUNE THERAPEUTICS INC., priority 2021, published 2025).
